The record followed here is patent US20260028354A1, “TETRAHYDRONAPHTHALENE DERIVATIVES AS ESTROGEN RECEPTOR DEGRADERS” (REGENT OF THE UNIVERSITY OF MICHIGAN, priority 2022, published 2026).

Like-named read-outs stand apart in the source and are kept apart here.

Experiment [1] deals with ER (Homo sapiens (Human), UniProt P03372). Put plainly: In-cell western blot analysis of ER for "B" compounds. To be noted: 16 hours, read-out: ICW DC50. Type of experiment: cell-based. In outline:
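ER levels given as a percentage of untreated/DMSO-treated wells (100%). Detection used primary antibodies for 2 h at room temperature followed by 680 and 800 nm fluorescent secondaries at 1:1000 for 1 h, read by LI-COR imaging.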

The nature of experiment [2]: Cell growth assay (WST-8) for "B" compounds. The note with it: T47D, read-out: Cell growth Inhibition in T47D cell line IC50. It is filed as cell-based. The essentials: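 Four-day compound exposure of cells plated at 1500/well the day before. Read-out is WST-8 (10%, 2.5 h, 37 °C) absorbance at 450 nm, normalized to vehicle control over three independent repeats.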
In general terms: Formazan colour is commonly taken as a measure of viable cells.

ER, sequence (P03372 whole entry): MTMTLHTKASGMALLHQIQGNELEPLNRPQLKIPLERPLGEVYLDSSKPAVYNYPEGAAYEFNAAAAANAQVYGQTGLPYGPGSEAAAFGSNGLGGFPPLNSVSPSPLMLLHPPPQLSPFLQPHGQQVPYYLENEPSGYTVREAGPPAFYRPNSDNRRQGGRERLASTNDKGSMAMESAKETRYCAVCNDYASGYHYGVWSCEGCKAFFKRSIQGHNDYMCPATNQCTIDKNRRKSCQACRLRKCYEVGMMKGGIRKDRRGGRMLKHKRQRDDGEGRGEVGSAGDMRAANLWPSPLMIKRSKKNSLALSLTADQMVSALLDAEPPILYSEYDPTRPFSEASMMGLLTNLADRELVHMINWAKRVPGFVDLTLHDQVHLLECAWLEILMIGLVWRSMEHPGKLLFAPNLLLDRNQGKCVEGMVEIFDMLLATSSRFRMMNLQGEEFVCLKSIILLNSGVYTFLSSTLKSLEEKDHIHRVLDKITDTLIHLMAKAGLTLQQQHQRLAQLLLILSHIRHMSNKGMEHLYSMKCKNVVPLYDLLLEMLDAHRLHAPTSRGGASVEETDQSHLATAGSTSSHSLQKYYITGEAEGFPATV

Turning to `O=C1CC[C@H](N2Cc3c(ccc4c3OCC43CCN(C[C@H]4CCC5(CCN(c6ccc([C@@H]7c8ccc(O)cc8CC[C@@H]7c7ccccc7)cc6)CC5)OC4)CC3)C2=O)C(=O)N1` [Compound B401, (S)-3-(1′-(((R)-9-(4-((1R,2S)-6-hydroxy-2-phenyl-1,2,3,4-tetrahydronaphthalen-1-yl)phenyl)-1-oxa-9-azaspiro[5.5]undecan-3-yl)methyl)-6-oxo-6,8-dihydro-2H,7H-spiro[furo[2,3-e]isoindole-3,4′-piperidin]-7-yl)piperidine-2,6-dione], the DC50 in experiment [1] was less than 10 nM. Moreover, the IC50 in experiment [2] was less than 1 nM.
Regarding `O=C1CC[C@H](N2Cc3c(ccc4c3OC[C@H]3CN(CC5COC6(CCN(c7ccc([C@@H]8c9cc(Cl)c(O)cc9CC[C@@H]8c8ccccc8)cc7)CC6)OC5)CCN43)C2=O)C(=O)N1` [Compound B340, (S)-3-((R)-7-((9-(4-((1R,2S)-7-chloro-6-hydroxy-2-phenyl-1,2,3,4-tetrahydronaphthalen-1-yl)phenyl)-1,5-dioxa-9-azaspiro[5.5]undecan-3-yl)methyl)-1-oxo-1,3,5,5a,6,7,8,9-octahydro-2H-pyrazino[1′,2′:4,5][1,4]oxazino[2,3-e]isoindol-2-yl)piperidine-2,6-dione], in experiment [1], the DC50 is 10 to 100 nM. For the same compound, in experiment [2] (T47D cell line), the IC50 was 1 to 10 nM.
As to `O=C1CCC(N2Cc3cc4c(cc3C2=O)OC[C@@H]2CN(CC3COC5(CN(c6ccc([C@@H]7c8ccc(O)cc8CC[C@@H]7c7ccccc7)cc6)C5)OC3)CCN42)C(=O)N1` (stereo partly drawn) [Compound B328, 3-((S)-3-((2-(4-((1R,2S)-6-hydroxy-2-phenyl-1,2,3,4-tetrahydronaphthalen-1-yl)phenyl)-5,9-dioxa-2-azaspiro[3.5]nonan-7-yl)methyl)-8-oxo-1,2,3,4,4a,5,8,10-octahydro-9H-pyrazino[1′,2′:4,5][1,4]oxazino[2,3-f]isoindol-9-yl)piperidine-2,6-dione], in experiment [1], the DC50 was in the range of 10 to 100 nM. Moreover, the IC50 in experiment [2] (T47D cell line) lay in the range of 1 to 10 nM.
The like results for `O=C1CCC(N2Cc3c(ccc4c3N3CCN(CC5CCN(c6ccc([C@@H]7c8ccc(O)cc8CC[C@@H]7c7ccccc7)cc6)CC5)C[C@H]3CO4)C2=O)C(=O)N1` (stereo partly drawn) [Compound B243, 3-((S)-9-((1-(4-((1R,2S)-6-hydroxy-2-phenyl-1,2,3,4-tetrahydronaphthalen-1-yl)phenyl)piperidin-4-yl)methyl)-3-oxo-1,3,7,7a,8,9,10,11-octahydro-2H-pyrazino[1′,2′:4,5][1,4]oxazino[3,2-e]isoindol-2-yl)piperidine-2,6-dione] were, in that order, 10 to 100 nM and 1 to 10 nM.
The like results for `O=C1CCC(N2Cc3c(ccc4c3OC[C@@H]3CN(CC5CCN(c6ccc([C@@H]7c8ccc(O)cc8CC[C@@H]7c7ccccc7)cc6)CC5)CCN43)C2=O)C(=O)N1` (stereo partly drawn) [Compound B306, 3-((S)-7-((1-(4-((1R,2S)-6-hydroxy-2-phenyl-1,2,3,4-tetrahydronaphthalen-1-yl)phenyl)piperidin-4-yl)methyl)-1-oxo-1,3,5,5a,6,7,8,9-octahydro-2H-pyrazino[1′,2′:4,5][1,4]oxazino[2,3-e]isoindol-2-yl)piperidine-2,6-dione] were, in that order, greater than 100 nM and less than 1 nM.
Regarding `O=C1CCC(N2Cc3c(ccc4c3OCC43CCN(CC4COC5(CCN(c6ccc([C@@H]7c8ccc(O)cc8CC[C@@H]7c7ccccc7)cc6)CC5)O4)CC3)C2=O)C(=O)N1` (stereo partly drawn) [Compound B350, 3-(1′-((8-(4-((1R,2S)-6-hydroxy-2-phenyl-1,2,3,4-tetrahydronaphthalen-1-yl)phenyl)-1,4-dioxa-8-azaspiro[4.5]decan-2-yl)methyl)-6-oxo-6,8-dihydro-2H,7H-spiro[furo[2,3-e]isoindole-3,4′-piperidin]-7-yl)piperidine-2,6-dione], the DC50 in experiment [1] was 10 to 100 nM. Besides, the IC50 in experiment [2] is greater than 10 nM.
In the case of `O=C1CCC(N2Cc3cc4c(cc3C2=O)OC[C@@H]2CN(CC(=O)N3CCC5(CC3)CCN(c3ccc([C@H]6c7ccc8[nH]ncc8c7CC[C@H]6c6ccccc6)cc3)CC5)CCN42)C(=O)N1` (stereo partly drawn) [Compound B390, 3-((S)-8-oxo-3-(2-oxo-2-(9-(4-((6S,7R)-7-phenyl-6,7,8,9-tetrahydro-3H-benzo[e]indazol-6-yl)phenyl)-3,9-diazaspiro[5.5]undecan-3-yl)ethyl)-1,2,3,4,4a,5,8,10-octahydro-9H-pyrazino[1′,2′:4,5][1,4]oxazino[2,3-f]isoindol-9-yl)piperidine-2,6-dione], the DC50 in experiment [1] lay within 10 to 100 nM. In addition, the 50% inhibitory concentration (IC50) in experiment [2] (T47D cell line) was greater than 10 nM.
The like results for `O=C1CCC(N2Cc3cc4c(cc3C2=O)OC[C@@H]2CN(C(=O)CN3CC5(CC(Nc6ccc([C@@H]7c8ccc(O)cc8CC[C@@H]7c7ccccc7)cc6)C5)C3)CCN42)C(=O)N1` (stereo partly drawn) [Compound B155, 3-((S)-3-(2-(6-((4-((1R,2S)-6-hydroxy-2-phenyl-1,2,3,4-tetrahydronaphthalen-1-yl)phenyl)amino)-2-azaspiro[3.3]heptan-2-yl)acetyl)-8-oxo-1,2,3,4,4a,5,8,10-octahydro-9H-pyrazino[1′,2′:4,5][1,4]oxazino[2,3-f]isoindol-9-yl)piperidine-2,6-dione] were, in that order, less than 10 nM and less than 1 nM.
`O=C1CC[C@H](N2Cc3c(ccc4c3OCC43CCN(CC4CCC5(C4)CN(c4ccc([C@@H]6c7ccc(O)cc7CC[C@@H]6c6ccccc6)cc4)C5)CC3)C2=O)C(=O)N1` (stereo partly drawn) [Compound B359, 3-(1′-((2-(4-((1R,2S)-6-hydroxy-2-phenyl-1,2,3,4-tetrahydronaphthalen-1-yl)phenyl)-2-azaspiro[3.4]octan-6-yl)methyl)-6-oxo-6,8-dihydro-2H,7H-spiro[furo[2,3-e]isoindole-3,4′-piperidin]-7-yl)piperidine-2,6-dione]: the DC50 in experiment [1] was in the range of 10 to 100 nM. For the same compound, the half-inhibitory concentration (IC50) in experiment [2] lay in the range of 1 to 10 nM.
Consider `O=C1CCC(N2Cc3c(ccc4c3OC[C@H]3CN(C(=O)CN5CC(Oc6ccc([C@@H]7c8ccc(O)cc8CC[C@@H]7c7ccccc7)cc6)C5)CCN43)C2=O)C(=O)N1` (stereo partly drawn) [Compound B245, 3-((R)-7-(2-(3-(4-((1R,2S)-6-hydroxy-2-phenyl-1,2,3,4-tetrahydronaphthalen-1-yl)phenoxy)azetidin-1-yl)acetyl)-1-oxo-1,3,5,5a,6,7,8,9-octahydro-2H-pyrazino[1′,2′:4,5][1,4]oxazino[2,3-e]isoindol-2-yl)piperidine-2,6-dione], for which the DC50 in experiment [1] fell in the range of 10 to 100 nM. Also, in experiment [2] (T47D cell line), the IC50 is less than 1 nM.
On to `O=C1CCC(N2Cc3cc4c(cc3C2=O)CN(CC2COC3(CCN(c5ccc([C@@H]6c7ccc(O)cc7CC[C@@H]6c6ccccc6)cc5)CC3)OC2)C4)C(=O)N1` (stereo partly drawn) [Compound B355, 3-(6-((9-(4-((1R,2S)-6-hydroxy-2-phenyl-1,2,3,4-tetrahydronaphthalen-1-yl)phenyl)-1,5-dioxa-9-azaspiro[5.5]undecan-3-yl)methyl)-1-oxo-3,5,6,7-tetrahydropyrrolo[3,4-f]isoindol-2(1H)-yl)piperidine-2,6-dione], for which the DC50 in experiment [1] was 10 to 100 nM. Besides, the half-inhibitory concentration (IC50) in experiment [2] (T47D cell line) is less than 1 nM.
The like results for `O=C1CCC(N2C(=O)c3cc4c(cc3C2=O)CN(CC2COC3(CCN(c5ccc([C@@H]6c7ccc(O)cc7CC[C@@H]6c6ccccc6)cc5)CC3)C2)C4)C(=O)N1` (stereo partly drawn) [Compound B235, 2-(2,6-dioxopiperidin-3-yl)-6-((8-(4-((1R,2S)-6-hydroxy-2-phenyl-1,2,3,4-tetrahydronaphthalen-1-yl)phenyl)-1-oxa-8-azaspiro[4.5]decan-3-yl)methyl)-6,7-dihydropyrrolo[3,4-f]isoindole-1,3(2H,5H)-dione] were, in that order, greater than 100 nM and 1 to 10 nM.
Consider `O=C1CCC(N2Cc3cc4c(cc3C2=O)OC[C@@H]2CN(CC(=O)N3CC(Oc5ccc([C@@H]6c7ccc(O)cc7CC[C@@H]6c6ccccc6)cc5)C3)CCN42)C(=O)N1` (stereo partly drawn) [Compound B150, 3-((S)-3-(2-(3-(4-((1R,2S)-6-hydroxy-2-phenyl-1,2,3,4-tetrahydronaphthalen-1-yl)phenoxy)azetidin-1-yl)-2-oxoethyl)-8-oxo-1,2,3,4,4a,5,8,10-octahydro-9H-pyrazino[1′,2′:4,5][1,4]oxazino[2,3-f]isoindol-9-yl)piperidine-2,6-dione], for which, in experiment [1], the DC50 was less than 10 nM. Also, the IC50 in experiment [2] (T47D cell line) was less than 1 nM.
For the compound `O=C1CCC(N2Cc3cc4c(cc3C2=O)OC[C@@H]2CN(CC(=O)N3CCC5(CC3)CCN(c3ccc([C@@H]6c7ccc8[nH]ncc8c7CC[C@@H]6c6ccccc6)cc3)CC5)CCN42)C(=O)N1` (stereo partly drawn) [Compound B389, 3-((S)-8-oxo-3-(2-oxo-2-(9-(4-((6R,7S)-7-phenyl-6,7,8,9-tetrahydro-3H-benzo[e]indazol-6-yl)phenyl)-3,9-diazaspiro[5.5]undecan-3-yl)ethyl)-1,2,3,4,4a,5,8,10-octahydro-9H-pyrazino[1′,2′:4,5][1,4]oxazino[2,3-f]isoindol-9-yl)piperidine-2,6-dione], the DC50 in experiment [1] was greater than 100 nM. Moreover, the IC50 in experiment [2] (T47D cell line) was greater than 10 nM.
The like results for `O=C1CCC(Nc2ccc(C3CCN(CC4COC5(CCN(c6ccc([C@@H]7c8ccc(O)cc8CC[C@@H]7c7ccccc7)cc6)CC5)C4)CC3)cc2)C(=O)N1` (stereo partly drawn) [Compound B344, 3-((4-(1-((8-(4-((1R,2S)-6-hydroxy-2-phenyl-1,2,3,4-tetrahydronaphthalen-1-yl)phenyl)-1-oxa-8-azaspiro[4.5]decan-3-yl)methyl)piperidin-4-yl)phenyl)amino)piperidine-2,6-dione] were, in that order, greater than 100 nM and 1 to 10 nM.
As for `CN(C(=O)c1ccc2c(c1)OC[C@H]1CN(CC3CCN(c4ccc([C@@H]5c6ccc(O)cc6CC[C@@H]5c5ccccc5)cc4)CC3)CCN21)C1CCC(=O)NC1=O` (stereo partly drawn) [Compound B255, (4aR)-N-(2,6-dioxopiperidin-3-yl)-3-((1-(4-((1R,2S)-6-hydroxy-2-phenyl-1,2,3,4-tetrahydronaphthalen-1-yl)phenyl)piperidin-4-yl)methyl)-N-methyl-1,2,3,4,4a,5-hexahydrobenzo[b]pyrazino[1,2-d][1,4]oxazine-8-carboxamide], in experiment [1], the DC50 was in the range of 10 to 100 nM. Also, the IC50 in experiment [2] (T47D cell line) fell in the range of 1 to 10 nM.

Broadly, the IC50 is the concentration needed to halve the response being measured.
